Read-outs that look alike come from different tables or passages of the source.
Legend:
Experiment in all cases: Test C pre-/postemergence greenhouse herbicide test
Format in all cases: in vivo
[1] = test system: ryegrass, Italian (Italian ryegrass, Lolium multiflorum); conditions: Lolium multiflorum, Ryegrass, Italian, read-out: Plant response rating; for pest or weed control at 31 g/ha: 31 g ai/ha; for pest or weed control at 62 g/ha: 62 g ai/ha; for pest or weed control at 125 g/ha: 125 g ai/ha; for pest or weed control at 250 g/ha: 250 g ai/ha
Text: (§1) Seeds of plant species selected from blackgrass (Alopecurus myosuroides), bromegrass, downy (downy bromegrass, Bromus tectorum), foxtail, green (green foxtail, Setaria viridis), ryegrass, Italian (Italian ryegrass, Lolium multiflorum), wheat (winter wheat, Triticum aestivum), oat, wild (wild oat, Avena fatua), galium (catchweed bedstraw, Galium aparine), bermudagrass (Cynodon dactylon), surinam grass (Brachiaria decumbens), cocklebur (common cocklebur, Xanthium strumarium), corn (Zea mays), crabgrass, large (large crabgrass, Digitaria sanguinalis), cupgrass, woolly (woolly cupgrass, Eriochloa villosa), foxtail, giant (giant foxtail, Setaria faberii), goosegrass (Eleusine indica), johnsongrass (Sorghum halepense), kochia (Kochia scoparia), lambsquarters (Chenopodium album), morningglory (Ipomoea coccinea), nightshade (eastern black nightshade, Solanum ptycanthum), nutsedge, yellow (yellow nutsedge, Cyperus esculentus), pigweed (Amaranthus retroflexus), ragweed (common ragweed, Ambrosia elatior), soybean (Glycine max), sunflower (common oilseed sunflower, Helianthus annuus), Russian thistle (Salsola kali), barnyardgrass (Echinochloa crus-galli), oilseed rape (Brassica napus), waterhemp (common waterhemp, Amaranthus rudis), and velvetleaf (Abutilon theophrasti) were planted into a blend of loam soil and sand and treated preemergence with test chemicals formulated in a non-phytotoxic solvent mixture which included a surfactant.
(§2) At the same time, plants selected from these crop and weed species and also barley (winter barley, Hordeum vulgare), canarygrass (Phalaris minor), windgrass (Apera spica-venti), deadnettle (henbit deadnettle, Lamium amplexicaule), and chickweed (common chickweed, Stellaria media) were planted in pots containing Redi-Earth® planting medium (Scotts Company, 14111 Scottslawn Road, Marysville, Ohio 43041) comprising spaghnum peat moss, vermiculite, wetting agent and starter nutrients and treated with postemergence applications of test chemicals formulated in the same manner. Plants ranged in height from 2 to 18 cm (1- to 4-leaf stage) for postemergence treatments. Treated plants and controls were maintained in a greenhouse for 13 to 15 d, after which time all species were compared to controls and visually evaluated. Plant response ratings, summarized in Table C, are based on a scale of 0 to 100 where 0 is no effect and 100 is complete control. A dash (-) response means no test result.

[2] = test system: lambsquarters (Chenopodium album)
Text: as §1, §2

[3] = test system: morningglory (Ipomoea coccinea); conditions: Morningglory
Text: as §1, §2

[4] = test system: nutsedge, yellow (yellow nutsedge, Cyperus esculentus); conditions: Cyperus, Nutsedge, Yellow, read-out: Plant response rating; for pest or weed control at 31 g/ha: 31 g ai/ha; for pest or weed control at 62 g/ha: 62 g ai/ha; for pest or weed control at 125 g/ha: 125 g ai/ha; for pest or weed control at 250 g/ha: 250 g ai/ha
Text: as §1, §2

[5] = test system: velvetleaf (Abutilon theophrasti); conditions: Abutilon theophrasti, Velvetleaf, read-out: Plant response rating; for pest or weed control at 62 g/ha: 62 g ai/ha; for pest or weed control at 125 g/ha: 125 g ai/ha
Text: as §1, §2

[6] = test system: kochia (Kochia scoparia)
Text: as §1, §2

[7] = test system: pigweed (Amaranthus retroflexus); conditions: Amaranthus retroflexus, Pigweed, read-out: Plant response rating; for pest or weed control at 31 g/ha: 31 g ai/ha; for pest or weed control at 62 g/ha: 62 g ai/ha; for pest or weed control at 125 g/ha: 125 g ai/ha; for pest or weed control at 250 g/ha: 250 g ai/ha
Text: as §1, §2

[8] = test system: oat, wild (wild oat, Avena fatua)
Text: as §1, §2

[9] = test system: galium (catchweed bedstraw, Galium aparine); conditions: Galium, read-out: Plant response rating; for pest or weed control at 31 g/ha: 31 g ai/ha; for pest or weed control at 62 g/ha: 62 g ai/ha; for pest or weed control at 125 g/ha: 125 g ai/ha; for pest or weed control at 250 g/ha: 250 g ai/ha
Text: as §1, §2

[10] = test system: ragweed (common ragweed, Ambrosia elatior); conditions: Ambrosia artemisiifolia, Ragweed, read-out: Plant response rating; for pest or weed control at 31 g/ha: 31 g ai/ha; for pest or weed control at 62 g/ha: 62 g ai/ha; for pest or weed control at 125 g/ha: 125 g ai/ha; for pest or weed control at 250 g/ha: 250 g ai/ha
Text: as §1, §2

[11] = test system: foxtail, giant (giant foxtail, Setaria faberii); conditions: Setaria faberi, Foxtail, Giant, read-out: Plant response rating; for pest or weed control at 31 g/ha: 31 g ai/ha; for pest or weed control at 62 g/ha: 62 g ai/ha; for pest or weed control at 125 g/ha: 125 g ai/ha; for pest or weed control at 250 g/ha: 250 g ai/ha
Text: as §1, §2

`Cc1cc(=O)n(-c2ccc(F)cc2)nc1Oc1ccnc(C(F)(F)F)c1` [Compound 14, 2-(4-fluorophenyl)-5-methyl-6-[[2-(trifluoromethyl)-4-pyridinyl]oxy]-3 (2H)-pyridazinone] showed a pest or weed control at 31 g/ha ([1]; post-emergence, Postemergence) of 5%, a pest or weed control at 62 g/ha ([1]; post-emergence, Postemergence) of 5% and a pest or weed control at 125 g/ha ([1]; post-emergence, Postemergence) of 10%. For the same compound, the pest or weed control at 250 g/ha ([1]; post-emergence, Postemergence) was 25%, the pest or weed control at 31 g/ha ([1]; pre-emergence, Preemergence) was 0% and the pest or weed control at 62 g/ha ([1]; pre-emergence, Preemergence) was 5%. For the same compound, the pest or weed control at 125 g/ha ([1]; pre-emergence, Preemergence) was 30%, the pest or weed control at 250 g/ha ([1]; pre-emergence, Preemergence) was 50% and the Plant response rating ([2]; Postemergence, 31 g ai/ha) was 40. The Plant response rating ([2]; Postemergence, 62 g ai/ha) was 40, the Plant response rating ([2]; Postemergence, 125 g ai/ha) was 45 and the Plant response rating ([2]; Postemergence, 250 g ai/ha) was 45. The Plant response rating ([2]; Preemergence, 31 g ai/ha) was 55, the Plant response rating ([2]; Preemergence, 62 g ai/ha) was 95 and the Plant response rating ([2]; Preemergence, 125 g ai/ha) was 95. The Plant response rating ([2]; Preemergence, 250 g ai/ha) was 98, the Plant response rating ([3]; Postemergence, 31 g ai/ha) was 75 and the Plant response rating ([3]; Postemergence, 62 g ai/ha) was 75. It also gave a Plant response rating ([3]; Postemergence, 125 g ai/ha) of 80, a Plant response rating ([3]; Postemergence, 250 g ai/ha) of 98 and a Plant response rating ([3]; Preemergence, 31 g ai/ha) of 35. For the same compound, the Plant response rating ([3]; Preemergence, 62 g ai/ha) was 60, the Plant response rating ([3]; Preemergence, 125 g ai/ha) was 65 and the Plant response rating ([3]; Preemergence, 250 g ai/ha) was 75. For the same compound, the pest or weed control at 31 g/ha ([4]; post-emergence, Postemergence) was 5%, the pest or weed control at 62 g/ha ([4]; post-emergence, Postemergence) was 5% and the pest or weed control at 125 g/ha ([4]; post-emergence, Postemergence) was 5%. For the same compound, the pest or weed control at 250 g/ha ([4]; post-emergence, Postemergence) was 10%, the pest or weed control at 31 g/ha ([4]; pre-emergence, Preemergence) was 0% and the pest or weed control at 62 g/ha ([4]; pre-emergence, Preemergence) was 5%. It also gave a pest or weed control at 125 g/ha ([4]; pre-emergence, Preemergence) of 25%, a pest or weed control at 250 g/ha ([4]; pre-emergence, Preemergence) of 25% and a pest or weed control at 31 g/ha ([5]; post-emergence, Postemergence, 31 g ai/ha) of 10%. For the same compound, the pest or weed control at 62 g/ha ([5]; post-emergence, Postemergence) was 30%, the pest or weed control at 125 g/ha ([5]; post-emergence, Postemergence) was 50% and the pest or weed control at 62 g/ha ([5]; pre-emergence, Preemergence) was 10%. It also gave a pest or weed control at 125 g/ha ([5]; pre-emergence, Preemergence) of 20%, a pest or weed control at 250 g/ha ([5]; pre-emergence, Preemergence, 250 g ai/ha) of 100% and a Plant response rating ([6]; Postemergence, 31 g ai/ha) of 25. The Plant response rating ([6]; Postemergence, 62 g ai/ha) was 35, the Plant response rating ([6]; Postemergence, 125 g ai/ha) was 55 and the Plant response rating ([6]; Postemergence, 250 g ai/ha) was 80. The Plant response rating ([6]; Preemergence, 31 g ai/ha) was 45, the Plant response rating ([6]; Preemergence, 62 g ai/ha) was 75 and the Plant response rating ([6]; Preemergence, 125 g ai/ha) was 90. For the same compound, the Plant response rating ([6]; Preemergence, 250 g ai/ha) was 90, the pest or weed control at 31 g/ha ([7]; post-emergence, Postemergence) was 60% and the pest or weed control at 62 g/ha ([7]; post-emergence, Postemergence) was 65%. It also gave a pest or weed control at 125 g/ha ([7]; post-emergence, Postemergence) of 80%, a pest or weed control at 250 g/ha ([7]; post-emergence, Postemergence) of 85% and a pest or weed control at 31 g/ha ([7]; pre-emergence, Preemergence) of 100%. For the same compound, the pest or weed control at 62 g/ha ([7]; pre-emergence, Preemergence) was 100%, the pest or weed control at 125 g/ha ([7]; pre-emergence, Preemergence) was 100% and the pest or weed control at 250 g/ha ([7]; pre-emergence, Preemergence) was 100%. It also gave a Plant response rating ([8]; Postemergence, 31 g ai/ha) of 20, a Plant response rating ([8]; Postemergence, 62 g ai/ha) of 30 and a Plant response rating ([8]; Postemergence, 125 g ai/ha) of 30. It also gave a Plant response rating ([8]; Postemergence, 250 g ai/ha) of 30, a Plant response rating ([8]; Preemergence, 31 g ai/ha) of 0 and a Plant response rating ([8]; Preemergence, 62 g ai/ha) of 0. For the same compound, the Plant response rating ([8]; Preemergence, 125 g ai/ha) was 65, the Plant response rating ([8]; Preemergence, 250 g ai/ha) was 65 and the pest or weed control at 31 g/ha ([9]; post-emergence, Postemergence) was 50%. The pest or weed control at 62 g/ha ([9]; post-emergence, Postemergence) was 55%, the pest or weed control at 125 g/ha ([9]; post-emergence, Postemergence) was 55% and the pest or weed control at 250 g/ha ([9]; post-emergence, Postemergence) was 75%. For the same compound, the pest or weed control at 31 g/ha ([9]; pre-emergence, Preemergence) was 60%, the pest or weed control at 62 g/ha ([9]; pre-emergence, Preemergence) was 98% and the pest or weed control at 125 g/ha ([9]; pre-emergence, Preemergence) was 100%. The pest or weed control at 250 g/ha ([9]; pre-emergence, Preemergence) was 100%, the pest or weed control at 31 g/ha ([10]; post-emergence, Postemergence) was 50% and the pest or weed control at 62 g/ha ([10]; post-emergence, Postemergence) was 50%. It also gave a pest or weed control at 125 g/ha ([10]; post-emergence, Postemergence) of 60%, a pest or weed control at 250 g/ha ([10]; post-emergence, Postemergence) of 70% and a pest or weed control at 31 g/ha ([10]; pre-emergence, Preemergence) of 5%. The pest or weed control at 62 g/ha ([10]; pre-emergence, Preemergence) was 15%, the pest or weed control at 125 g/ha ([10]; pre-emergence, Preemergence) was 30% and the pest or weed control at 250 g/ha ([10]; pre-emergence, Preemergence) was 55%. For the same compound, the pest or weed control at 31 g/ha ([11]; post-emergence, Postemergence) was 5%, the pest or weed control at 62 g/ha ([11]; post-emergence, Postemergence) was 10% and the pest or weed control at 125 g/ha ([11]; post-emergence, Postemergence) was 10%. It also gave a pest or weed control at 250 g/ha ([11]; post-emergence, Postemergence) of 15%, a pest or weed control at 31 g/ha ([11]; pre-emergence, Preemergence) of 80% and a pest or weed control at 62 g/ha ([11]; pre-emergence, Preemergence) of 98%. The pest or weed control at 125 g/ha ([11]; pre-emergence, Preemergence) was 100% and the pest or weed control at 250 g/ha ([11]; pre-emergence, Preemergence) was 100%.

Source: patent publication US10202361B2, “Pyridazinones as herbicides” (E I DU PONT DE NEMOURS AND COMPANY, priority 2014, dated 2019)
